Measured values taken from the supplement of paper PMC11061612.

Tests used:
[1] = test system: COR-L279 (Small Cell Lung Carcinoma); assay: Bliss excess, mean over the matrix (fraction); higher = more synergy
Procedure, shortened: (§1)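 Cell lines grown in DMEM/F12 or RPMI with 10% FBS were plated in 1536-well plates and held 24 hours at 37°C, 5% CO2 before 72 hours of exposure to two-drug dose matrices, with DMSO typically at 0.2%. CellTiter-Glo 2.0 luminescence gave viability, which was converted to inhibition. Vehicle wells were set to 0 and blank wells to 1. Combination Emax is the second-highest inhibition in the matrix, and Bliss excess is the observed combination effect minus the expected EA + EB − EA·EB, where EA and EB are the single-agent effects.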

[2] = test system: CW-2 (Colorectal Carcinoma); assay: as above
Procedure, shortened: as §1

[3] = test system: DMS-114 (Small Cell Lung Carcinoma); assay: as above
Procedure, shortened: as §1

[4] = test system: KP-3 (Pancreatic Carcinoma); assay: as above
Procedure, shortened: as §1

[5] = test system: KU812 (Chronic Myelogenous Leukemia); assay: as above
Procedure, shortened: as §1

[6] = test system: KYSE-270 (Esophageal Squamous Cell Carcinoma); assay: as above
Procedure, shortened: as §1

M059J (Glioblastoma) [7] = assay: as above
Procedure, shortened: as §1

[8] = test system: MN-60 (B-Lymphoblastic Leukemia); assay: as above
Procedure, shortened: as §1

[9] = test system: MOG-G-CCM (Low Grade Glioma); assay: as above
Procedure, shortened: as §1

[10] = test system: NCCIT (Other Solid Carcinomas); assay: as above
Procedure, shortened: as §1

NCI-H2731 (Mesothelioma) [11] = assay: as above
Procedure, shortened: as §1

[12] = test system: NCI-H3122 (Lung Adenocarcinoma); assay: as above
Procedure, shortened: as §1

[13] = test system: NCI-H520 (Squamous Cell Lung Carcinoma); assay: as above
Procedure, shortened: as §1

[14] = test system: NCI-H526 (Small Cell Lung Carcinoma); assay: as above
Procedure, shortened: as §1

[15] = test system: NCI-H929 (Plasma Cell Myeloma); assay: as above
Procedure, shortened: as §1

[16] = test system: OCI-AML3 (Acute Myeloid Leukemia); assay: as above
Procedure, shortened: as §1

SJSA-1 (Osteosarcoma) [17] = assay: as above
Procedure, shortened: as §1

[18] = test system: SK-GT-4 (Esophageal Adenocarcinoma); assay: as above
Procedure, shortened: as §1

[19] = test system: ST486 (Burkitt's Lymphoma); assay: as above
Procedure, shortened: as §1

[20] = test system: T-T (Esophageal Squamous Cell Carcinoma); assay: as above
Procedure, shortened: as §1

[21] = test system: VMRC-RCZ (Kidney Carcinoma); assay: as above
Procedure, shortened: as §1

[22] = test system: COR-L279 (Small Cell Lung Carcinoma); assay: combination Emax (second highest fraction inhibited in the dose matrix, 72 h); higher = more inhibition; extreme values may be limits of the assay
Procedure, shortened: as §1

[23] = test system: CW-2 (Colorectal Carcinoma); assay: as above
Procedure, shortened: as §1

[24] = test system: DMS-114 (Small Cell Lung Carcinoma); assay: as above
Procedure, shortened: as §1

[25] = test system: KP-3 (Pancreatic Carcinoma); assay: as above
Procedure, shortened: as §1

[26] = test system: KU812 (Chronic Myelogenous Leukemia); assay: as above
Procedure, shortened: as §1

[27] = test system: KYSE-270 (Esophageal Squamous Cell Carcinoma); assay: as above
Procedure, shortened: as §1

M059J (Glioblastoma) [28] = assay: as above
Procedure, shortened: as §1

[29] = test system: MN-60 (B-Lymphoblastic Leukemia); assay: as above
Procedure, shortened: as §1

[30] = test system: MOG-G-CCM (Low Grade Glioma); assay: as above
Procedure, shortened: as §1

[31] = test system: NCCIT (Other Solid Carcinomas); assay: as above
Procedure, shortened: as §1

NCI-H2731 (Mesothelioma) [32] = assay: as above
Procedure, shortened: as §1

[33] = test system: NCI-H3122 (Lung Adenocarcinoma); assay: as above
Procedure, shortened: as §1

[34] = test system: NCI-H520 (Squamous Cell Lung Carcinoma); assay: as above
Procedure, shortened: as §1

[35] = test system: NCI-H526 (Small Cell Lung Carcinoma); assay: as above
Procedure, shortened: as §1

[36] = test system: NCI-H929 (Plasma Cell Myeloma); assay: as above
Procedure, shortened: as §1

[37] = test system: OCI-AML3 (Acute Myeloid Leukemia); assay: as above
Procedure, shortened: as §1

SJSA-1 (Osteosarcoma) [38] = assay: as above
Procedure, shortened: as §1

[39] = test system: SK-GT-4 (Esophageal Adenocarcinoma); assay: as above
Procedure, shortened: as §1

[40] = test system: ST486 (Burkitt's Lymphoma); assay: as above
Procedure, shortened: as §1

[41] = test system: T-T (Esophageal Squamous Cell Carcinoma); assay: as above
Procedure, shortened: as §1

[42] = test system: VMRC-RCZ (Kidney Carcinoma); assay: as above
Procedure, shortened: as §1
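For Bliss excess, mean over the matrix in this document: after 72 h of two-drug dosing.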

O=C(c1cc(Cc2n[nH]c(=O)c3ccccc23)ccc1F)N1CCN(C(=O)C2CC2)CC1 [Olaparib] + CC1(C)CCC(CN2CCN(c3ccc(C(=O)NS(=O)(=O)c4ccc(NCC5CCOCC5)c([N+](=O)[O-])c4)c(Oc4cnc5[nH]ccc5c4)c3)CC2)=C(c2ccc(Cl)cc2)C1 [Venetoclax] (first compound max 10 µM, 7x7, partner max 1 µM)
Bliss excess [1]: 0.0109
Bliss excess [2]: -0.0299
Bliss excess [3]: -0.0446
Bliss excess [4]: -0.0562
Bliss excess [5]: -0.0241
Bliss excess [6]: -0.0027
Bliss excess (M059J (Glioblastoma) [7]): -0.0001
Bliss excess [8]: -0.0502
Bliss excess [9]: -0.0459
Bliss excess [10]: 0.0127
Bliss excess (NCI-H2731 (Mesothelioma) [11]): -0.047
Bliss excess [12]: -0.0681
Bliss excess [13]: -0.0201
Bliss excess [14]: 0.0372
Bliss excess [15]: -0.0036
Bliss excess [16]: 0.0202
Bliss excess (SJSA-1 (Osteosarcoma) [17]): -0.0375
Bliss excess [18]: -0.056
Bliss excess [19]: -0.0134
Bliss excess [20]: -0.0375
Bliss excess [21]: -0.052
combination Emax [22]: 0.943
combination Emax [23]: 0.118
combination Emax [24]: 0.262
combination Emax [25]: 0.0923
combination Emax [26]: 0.403
combination Emax [27]: 0.302
combination Emax (M059J (Glioblastoma) [28]): 0.291
combination Emax [29]: 0.222
combination Emax [30]: 0.168
combination Emax [31]: 0.231
combination Emax (NCI-H2731 (Mesothelioma) [32]): 0.0659
combination Emax [33]: 0.226
combination Emax [34]: 0.119
combination Emax [35]: 0.862
combination Emax [36]: 0.21
combination Emax [37]: 0.427
combination Emax (SJSA-1 (Osteosarcoma) [38]): 0.118
combination Emax [39]: 0.101
combination Emax [40]: 0.217
combination Emax [41]: 0.177
combination Emax [42]: 0.0266
